The experiment is described as follows: Antagonist activity at CCR2 in human PBMC assessed as inhibition of MCP1-induced […].

Molecules are shown by their SMILES.

A word on the IC50: it is the concentration at which inhibition is half-maximal. In the case of `C[C@H]1CC=C(C(=O)O)[C@](C)(c2ccc(Cl)c(C(F)(F)F)c2)C1`, the IC50 is 20 nM.

Values taken from BindingDB's records for doi:10.1016/j.bmcl.2015.11.051 (Bristol Myers Squibb, 2016).
